Results: US7005274B1, “Methods and compositions for diagnosing and treating arthritic disorders and regulating bone mass” (MIGENIX Corp., priority 1999, dated 2006)

Legend:
[1] = system: articular chondrocytes and TC28 cells; assay: Oxygen consumption with a Clark electrode (respiratory rate); assay type: cell-based, human; conditions: SIN-1 500 μM; NOC-12 250 μM; antimycin A and oligomycin concentration not stated
chondrocytes [2] = assay: Collagen synthesis, [3H]-proline labeling, collagenase-sensitive protein; assay type: cell-based, human; conditions: 72 hours after addition; 0.025 mM antimycin A or non-lethal dose of oligomycin
Protocol: Collagen production was measured by tritiated proline ([^3H]-proline) biosynthetic protein labeling and measuring of collagenase-sensitive protein production (FIG. 2). Articular chondrocytres or TC28 cells (5×10^5 cells) were plated in 5 ml medium made 0.025 mM in antimycin A (or 0.02 μg/ml oligomycin, see next Example) by addition of the indicated agent every 24 hours. After the mitochondrial inhibitors were added, the cells were cultured for a further 48 hours. Medium was then removed and replaced with serum-free medium containing 5 μl/ml of [^3H]-proline, 50 μg/ml ascorbate and 100 μg/ml β-aminoproprionitrile, and incubation continued for an additional 8 hours.
Medium was then collected and precipitated with 15% trichloroacetic acid (TCA). Cells were extracted in 1 M NaCl, 1 mM N-ethylmaleimide, 0.2 mM phenylmethylsulfonyl fluoride, 0.75 mM EDTA and then precipitated with 15% TCA. The precipitates were washed 3 times with 5% TCA and once with 5% TCA containing 0.5% tannic acid. The pellet was dissolved and resuspended in 0.05 M Tris-HCl, pH 7.6, 5 mM CaCl2, 2.5 mM N-ethylmaleimide. Collagenase-sensitive protein per μg total protein was determined by incubation for 2 hours with 80 units/ml of collagenase, followed by addition of 10% TCA/0.5% tannic acid, and addition of the supernatant to scintillation fluid for standard scintillation counting in the tritium channel.

chondrocytes [3] = assay: Proteoglycan synthesis, [35S] labeling; assay type: cell-based, human; conditions: 72 hours after addition; 0.025 mM antimycin A or non-lethal dose of oligomycin
Protocol: Proteoglycan synthesis was measured by [^35S]-labeling and uptake of the isotope, as well as by biosynthetic incorporation of the isotope (van Osch et al., Matrix Biol. 17:413–424, 1998) into proteoglycans extracted and subsequently purified by column chromatography on Sephadex® G-25 (Pharmacia, Piscataway, N.J.) (FIG. 3). Chondrocytes or TC28 cells (3×10^6) were plated in 30 ml of medium in a 10-cm diameter tissue culture dish and the medium was made 0.025 mM in antimycin (or 0.02 μg/ml oligomycin) every 24 hours for 72 hours. After 48 hours of culture, 20 μCi/ml of [^35S]sodium sulfate was added to each plate in serum-free medium. After a total of 72 hours, the medium was collected and the cells were washed once with phosphate buffered saline (PBS) and then scraped into 0.5 M NaOH and mixed for 48 hours at 4° C. The medium and the cell extract were eluted from Sephadex® (Pharmacia, Piscataway, N.J.) G-25M PD-10 columns with 4M guanidine-HCl. The eluted portion was added to scintillation fluid and counted (n=9 replicates in FIG. 3; *=P<0.05 by Student's t-test).

[4] = system: TC28 cells or articular chondrocytes expressing NTPPPH PC-1; assay: PPi elaboration by PC-1 transfectants; assay type: cell-based; conditions: in the presence of antimycin A or oligomycin
Protocol: In related experiments, the effects on PPi elaboration by PC-1 transfectants of either oligomycin or antimycin A, alone or in combination with TGFβ, were determined (FIG. 4). Briefly, transient transfections were performed on 5×10^5 TC28 cells in a 35 mm tissue culture dish using Lipofectamine Plus™ (Life Technologies, Grand Island, N.Y.). Empty plasmid DNA (2 μg) or wild-type human PC-1-encoding DNA in plasmid pcDNA3.1 (2 μg) (Johnson et al., 1999 Arth. Rheum. 42:1986; Terkeltaub et al., 1994 Arthritis Rheum. 37:934–41) was added to the lipid reagent following a complex formation of the DNA to the “Plus” reagent according to the supplier's instructions, and then incubated with cells for 3 hours at 37° C. in DMEM/Fi2 medium containing 1% FCS. Cells were then washed with phosphate buffered saline (PBS), returned to complete culture medium and incubated an additional 72 hours. […] For adenoviral gene transfer, the protocol of Johnson et al. was followed (1999 Arth. Rheum. 42:1986) using articular chondrocytes which, unlike TC28 cells, cannot be efficiently transfected with plasmid DNA. […] In sum, mitochondrial function, particularly oxidative phosphorylation, appeared to provide ATP that was critical for extracellular matrix synthesis and PPi elaboration in chondrocytes.

NTPPPH = assay: Cell-associated NTPPPH activity (control study); assay type: cell-based; conditions: not shown
alkaline phosphatase = assay: PPi-degrading alkaline phosphatase activity (control study); assay type: cell-based; conditions: not shown

Compound | respiratory rates [1] | depression of collagen synthesis (chondrocytes [2]) | depression of proteoglycan synthesis (chondrocytes [3]) | intracellular and extracellular PPi levels in NTPPPH PC-1 transfectants [4] | cell-associated NTPPPH activity (NTPPPH) | PPi-degrading alkaline phosphatase activity (alkaline phosphatase)
CC[C@H]1/C=C/C=C/C[C@@H](C)[C@H](O)[C@@](C)(O)C(=O)[C@@H](C)[C@H](O)[C@@H](C)C(=O)[C@@H](C)[C@H](O)[C@@H](C)/C=C/C(=O)O[C@@H]2[C@H](C)[C@H](CC1)O[C@]1(CC[C@H](C)[C@H](C[C@@H](C)O)O1)[C@H]2C [oligomycin] | inhibited respiratory rates | more than 50% | more than 50% | unable to increase intracellular and extracellular PPi levels | neither oligomycin nor antimycin treatment suppressed cell-associated NTPPPH activity | neither agent altered PPi-degrading alkaline phosphatase activity
antimycin A | inhibited respiratory rates | more than 50% | more than 50% | unable to increase intracellular and extracellular PPi levels | neither oligomycin nor antimycin treatment suppressed cell-associated NTPPPH activity | neither agent altered PPi-degrading alkaline phosphatase activity
